Patent US6410561B1, “Amide derivatives and nociceptin antagonists” (Japan Tobacco Inc., priority 1998, dated 2002)
Structures can show the parent of a compound that is named as a salt. Where two headings read alike, the source gives them in different places. Blank lines part the entries; values can stand above or below the compound they belong to.

Assays:
[1] = biological target: T1, μ receptor (Rattus norvegicus, UniProt P33535); assay: μ receptor binding assay ([3H]DAMGO); conditions: for Ki: calculated from IC50 and Kd of [3H]DAMGO; for IC50: rat cerebrum membrane, [3H]DAMGO 1 nM
T1 construct: Rat cerebrum membrane standard sample; from tissue; host or cells: rat cerebrum membranes
T1 sequence (P33535 whole entry): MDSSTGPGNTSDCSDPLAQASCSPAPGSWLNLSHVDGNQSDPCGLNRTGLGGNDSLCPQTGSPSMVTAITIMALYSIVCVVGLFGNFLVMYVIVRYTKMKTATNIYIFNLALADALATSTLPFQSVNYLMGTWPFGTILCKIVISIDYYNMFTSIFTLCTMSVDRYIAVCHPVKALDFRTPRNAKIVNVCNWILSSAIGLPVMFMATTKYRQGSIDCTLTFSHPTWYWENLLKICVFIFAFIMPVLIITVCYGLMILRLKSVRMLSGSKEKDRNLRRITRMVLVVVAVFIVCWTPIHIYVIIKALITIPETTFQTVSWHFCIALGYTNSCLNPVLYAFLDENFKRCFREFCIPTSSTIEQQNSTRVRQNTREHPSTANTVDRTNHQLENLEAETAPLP
Protocol: Rat cerebrum membrane standard sample (final concentration 0.755 mg·protein/ml), [^3H]DAMGO (Try-D-Ala-Gly-NMe-Phe-Gly-ol) [diluted with Tris buffer (50 mM Tris-HCl, 0.1 mM p-APMSF, 2 mg/ml BSA (pH=7.4)) to a final concentration of 1 nM] and test compound (diluted with Tris buffer to a final concentration of 10 nM-10 μM) were mixed, and the mixture was incubated at room temperature for 90 min. The membrane was recovered on a G/F-B filter (same as above) using a cell harvester and the reaction was stopped. After washing 3 times, the filter was dried at 42° C. for 1 hr. A scintillation solution (same as above) was added and the radioactivity (same as above) was assayed.
(§1) The nonspecific binding was the binding in the presence of 10 μM naloxone and the difference between the total binding and nonspecific binding was taken as the specific binding. IC50 was calculated from inhibition of specific binding at each concentration of the compound, and Ki value of the test compound was calculated from this value and Kd value of [^3H]DAMGO.

[2] = biological target: T2, ORL-1 receptor (Homo sapiens, UniProt P41146); assay: ORL1 receptor binding assay ([3H]nociceptin); conditions: for Ki: calculated from IC50 and Kd of [3H]nociceptin; for IC50: membrane of human ORL-1 expression cells, [3H]nociceptin 0.5 nM
T2 construct: expressed in transfected cells
T2 sequence (P41146 whole entry): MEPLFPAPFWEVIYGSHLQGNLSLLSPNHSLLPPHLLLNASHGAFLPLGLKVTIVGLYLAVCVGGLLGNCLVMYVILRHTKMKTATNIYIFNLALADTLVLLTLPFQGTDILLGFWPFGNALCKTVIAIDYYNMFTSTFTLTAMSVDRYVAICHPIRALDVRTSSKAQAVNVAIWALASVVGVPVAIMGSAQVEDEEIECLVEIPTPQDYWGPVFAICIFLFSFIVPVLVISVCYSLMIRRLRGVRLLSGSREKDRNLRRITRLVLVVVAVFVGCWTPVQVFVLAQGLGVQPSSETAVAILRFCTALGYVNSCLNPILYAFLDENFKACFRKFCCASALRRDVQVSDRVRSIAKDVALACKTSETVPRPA
Protocol: ORL1 Receptor Binding Assay
A cell membrane suspension obtained from human ORL-1 expression cells was adjusted with Tris buffer [50 mM Tris, 2 mM EDTA, 0.1 mM (p-Amidinophenyl)methanesulfonyl Fluoride Hydrochloride (p-APMSF), 2 mg/ml BSA] to membrane protein amount of about 25 μg/ml (2.5 μg/well). This was mixed with [^3H]nociceptin (diluted with Tris buffer to a final concentration of 0.5 nM) and test compound (diluted with Tris buffer to a final concentration of 10 nM-10 μM), and the mixture was incubated at room temperature for 60 min. The membrane was recovered on a G/F-B filter (Packard, Unifilter 96GF/B) using a cell harvester and the reaction was stopped. After washing 3 times, the filter was dried at 42° C. for 1 hr. A scintillation solution (Packard, microscint-20) was added and the radioactivity (Packard, Top count A9912V) was assayed.
as §1, with “1” for “10”, “nociceptin” for “naloxone”, “[^3H]nociceptin.” for “[^3H]DAMGO.”

[3] = system: allodynia model; assay: Allodynia test (intrathecal nociceptin, tactile stimulation); type: in vivo, Mice; conditions: Mus musculus, read-out: Allodynia M.E.D. (minimum effective dose)
Protocol: Mice (Crj, ICR, 4-week-old, male) were intrathecally administered with nociceptin (50 pg/5 μl) without anesthesia. For 20 min after administration and at 5 min intervals, an area from lateral region to tail of the mice was rubbed with a brush and the response of the mice was observed. The evaluation followed the criteria of 0; no change, 1; run or cry upon tactile stimulation, and 2; cry loud or dash away upon tactile stimulation. The test compound was suspended in a 0.5% MC solution and orally administered 60 min before nociceptin administration. The significant difference of the score of each administration group at 20 min after nociceptin administration from the group administered with solvent was analyzed with Mann-Whitny U-test.

[4] = mice, oral, 60 min before nociceptin 50 pg i.t., score at 20 min

melting point: 237 °C
Structure (SMILES): Cl.Nc1cccc2ccc(NC(=O)c3ccccc3COc3ccccc3)cc12

Ki [1]: 545 nM | IC50 [1]: 1420 nM | Ki [2]: 54 nM | IC50 [2]: 1030 nM
Structure (SMILES): Cc1cc(N)c2cc(NC(=O)c3ccccc3CCCCOc3ccccc3)ccc2n1.Cl [Example 63]
minimal effective dose [3, 4]: > 3 mg/kg

Ki [1]: 464 nM | IC50 [1]: 1180 nM | Ki [2]: 8 nM | IC50 [2]: 150 nM
Structure (SMILES): Cc1cc(N)c2cc(NC(=O)c3ccccc3COc3ccc(F)cc3)ccc2n1.Cl [Example 25, N-(4-amino-2-methyl-6-quinolyl)-2-[(4-fluorophenoxy)methyl]benzamide hydrochloride]
minimal effective dose [3, 4]: > 0.3 mg/kg

melting point: 274 °C
Structure (SMILES): Cc1cc(N)c2cc(NC(=O)c3ccccc3CNc3ccc(Cl)cc3)ccc2n1 [Example 102]

melting point: 208 °C
Structure (SMILES): Cc1cc(N)c2cc(NC(=O)c3ccccc3CN(C(=O)OC(C)(C)C)c3ccc(Cl)cc3)ccc2n1.Cl

melting point: 231 °C
Structure (SMILES): Cl.Nc1ccnc2ccc(NC(=O)c3ccccc3COc3ccc(Cl)cc3)cc12

melting point: 262 °C
Structure (SMILES): COC(=O)c1ccc(OCc2ccccc2C(=O)Nc2ccc3nc(C)cc(N)c3c2)cc1.Cl

melting point: 237 °C
Structure (SMILES): Cc1cc(N)c2cc(NC(=O)c3ccccc3COc3ccc(N)cc3)ccc2n1 (as salt: hydrochloride) [Example 23, N-(4-amino-2-methyl-6-quinolyl)-2-[(4-aminophenoxy)methyl]benzamide dihydrochloride]

Ki [1]: 783 nM | IC50 [1]: 2000 nM | Ki [2]: 125 nM | IC50 [2]: 2360 nM
Structure (SMILES): Cc1cc(N)c2cc(NC(=O)c3ccccc3CCOc3ccccc3)ccc2n1.Cl [Example 62]
minimal effective dose [3, 4]: > 3 mg/kg

Ki [1]: 2010 nM | IC50 [1]: 5350 nM | Ki [2]: 63 nM | IC50 [2]: 1220 nM
Structure (SMILES): Cc1cc(N)c2cc(NC(=O)c3ccccc3CCCOc3ccccc3)ccc2n1.Cl [Example 61]
minimal effective dose [3, 4]: 3 mg/kg

Ki [2]: 108 nM | IC50 [2]: 2000 nM | melting point: 210 °C
Structure (SMILES): Cc1cc(N)c2cc(NC(=O)c3ccccc3CCCCCCOc3ccccc3)ccc2n1.Cl [Example 66]
minimal effective dose [3, 4]: > 3 mg/kg

melting point: 225 °C
Structure (SMILES): Cc1cc(N)c2cc(NC(=O)c3ccccc3COc3ccc(C(=O)O)cc3)ccc2n1.Cl

melting point: 268 °C
Structure (SMILES): Cc1cc(N)c2cc(NC(=O)c3ccccc3COc3ccc(-c4ccccc4)cc3)ccc2n1.Cl

melting point: > 300 °C
Structure (SMILES): Cc1ccc(CCc2ccccc2C(=O)Nc2ccc3nc(C)cc(N)c3c2)cc1.Cl

melting point: 219 °C
Structure (SMILES): CCc1ccc(OCc2ccccc2C(=O)Nc2ccc3nccc(N)c3c2)cc1.Cl

melting point: 269 °C
Structure (SMILES): Cc1cc(N)c2cc(NC(=O)c3ccccc3COc3ccc4occc4c3)ccc2n1.Cl

melting point: 201 °C
Structure (SMILES): Cc1ccc(OCc2ccccc2C(=O)Nc2ccc3nc(CO)cc(N)c3c2)cc1.Cl

melting point: 221 °C
Structure (SMILES): Cc1cc(N)c2cc(NC(=O)c3ccccc3C[S+]([O-])c3ccc(Cl)cc3)ccc2n1.Cl (stereo not shown)

melting point: 207 °C
Structure (SMILES): Cc1cc(N)c2cc(NC(=O)c3ccccc3COc3cccnc3)ccc2n1.Cl

melting point: 258 °C
Structure (SMILES): CC(=O)OCc1ccc(OCc2ccccc2C(=O)Nc2ccc3nc(C)cc(N)c3c2)cc1.Cl

Ki [2]: 89 nM | IC50 [2]: 1770 nM
Structure (SMILES): Cc1cc(N)c2cc(NC(=O)c3ccccc3CCc3ccccc3)ccc2n1 [Example 71]
minimal effective dose [3, 4]: 30 mg/kg

Ki [1]: 525 nM | IC50 [1]: 1400 nM | Ki [2]: 8 nM | IC50 [2]: 170 nM
Structure (SMILES): CCc1cc(N)c2cc(NC(=O)c3ccccc3COc3ccc(Cl)cc3Cl)ccc2n1 [Example 51]

melting point: 176 °C
Structure (SMILES): Cc1cc(N)c2cc(NC(=O)c3ccccc3COc3ccc4c(c3)CCCC4)ccc2n1.Cl

melting point: 214 °C
Structure (SMILES): Cc1cc(N)c2cc(NC(=O)c3ccccc3CN(C)c3ccc(Cl)cc3)ccc2n1 [Example 101]

Ki [1]: 1020 nM | IC50 [1]: 2670 nM | Ki [2]: 5 nM | IC50 [2]: 90 nM
Structure (SMILES): Cc1cc(N)c2cc(NC(=O)c3ccccc3COc3ccc(I)cc3)ccc2n1 [Example 38, N-(4-amino-2-methyl-6-quinolyl)-2-[(4-iodophenoxy)methyl]benzamide]
minimal effective dose [3, 4]: > 0.3 mg/kg

melting point: 253 °C
Structure (SMILES): Cc1cc(N)c2cc(NC(=O)c3ccccc3COc3cccc(C(F)(F)F)c3)ccc2n1.Cl

melting point: 216 °C
Structure (SMILES): Cc1cc(N)c2cc(NC(=O)[C@@H]3CCCN3CCOc3ccc(Cl)cc3)ccc2n1 [Example 113]

melting point: 191 °C
Structure (SMILES): CSc1nc2ccc(NC(=O)c3ccccc3COc3ccccc3)cc2[nH]1.Cl

Ki [1]: 324 nM | IC50 [1]: 860 nM | Ki [2]: 53 nM | IC50 [2]: 1020 nM
Structure (SMILES): COc1cc(OC)cc(OCc2ccccc2C(=O)Nc2ccc3nc(C)cc(N)c3c2)c1.Cl [Example 10, N-(4-amino-2-methyl-6-quinolyl)-2-[(3,5-dimethoxyphenoxy)methyl]benzamide hydrochloride]
minimal effective dose [3, 4]: 3 mg/kg

melting point: 233 °C
Structure (SMILES): Cc1cc(N)c2cc(NC(=O)c3ccccc3CCCCc3ccccc3)ccc2n1.Cl

melting point: 241 °C
Structure (SMILES): Cl.Nc1ccc(NC(=O)c2ccccc2COc2ccccc2)cc1

melting point: 219 °C
Structure (SMILES): Cc1cc(N)c2cc(NC(=O)c3sccc3COc3ccc(Cl)cc3)ccc2n1.Cl

melting point: 255 °C
Structure (SMILES): Cc1cc(N)c2cc(NC(=O)c3ccccc3COc3cccc(F)c3)ccc2n1.Cl

melting point: > 300 °C
Structure (SMILES): Cc1cc(N)c2cc(NC(=O)c3cccc(CCc4ccccc4)c3)ccc2n1.Cl

melting point: 224 °C
Structure (SMILES): COc1cccc(OCc2ccccc2C(=O)Nc2ccc3nc(C)cc(N)c3c2)c1.Cl

melting point: 244 °C
Structure (SMILES): COCc1ccccc1C(=O)Nc1ccc2nc(C)cc(N)c2c1.Cl

melting point: 270 °C
Structure (SMILES): COc1ccc(OCc2ccccc2C(=O)Nc2ccc3nc(C)cc(N)c3c2)cc1OC.Cl

melting point: 284 °C
Structure (SMILES): CNc1cc(C)nc2ccc(NC(=O)c3ccccc3COc3ccccc3)cc12.Cl

melting point: 273 °C
Structure (SMILES): Cc1cc(N)c2cc(NC(=O)c3ccccc3COc3ccc(CO)cc3)ccc2n1.Cl

Structure (SMILES): Cc1cc(N)c2cc(NC(=O)c3ccccc3COc3ccccc3Cl)ccc2n1.Cl [Example 27, N-(4-amino-2-methyl-6-quinolyl)-2-[(2-chlorophenoxy)methyl]benzamide hydrochloride]
Ki [1]: 414 nM | IC50 [1]: 1060 nM | melting point: 165 °C | minimal effective dose ([3]; po): 0.3 mg/kg

Structure (SMILES): Cc1cc(N)c2cc(NC(=O)c3ccccc3COc3ccc([N+](=O)[O-])cc3)ccc2n1.Cl [Example 32, N-(4-amino-2-methyl-6-quinolyl)-2-[(4-nitrophenoxy)methyl]benzamide hydrochloride]
Ki [1]: 227 nM | IC50 [1]: 580 nM | melting point: 238 °C | minimal effective dose ([3]; po): > 0.3 mg/kg

melting point: 211 °C
Structure (SMILES): Cc1cc(N)c2cc(NC(=O)[C@@H]3CCCN3CCCOc3ccc(Cl)cc3)ccc2n1 [Example 114]

melting point: 216 °C
Structure (SMILES): Cc1cc(N)c2cc(NC(=O)c3ccccc3CSc3ccc(Cl)cc3)ccc2n1.Cl

melting point: 195 °C
Structure (SMILES): Cc1cc(N)c2cc(NC(=O)c3ccccc3COc3cccc(C#N)c3)ccc2n1.Cl

melting point: 233 °C
Structure (SMILES): Cc1cc(N)c2cc(NC(=O)c3ccccc3COc3ccc(N(C)C)cc3)ccc2n1 (as salt: hydrochloride)

melting point: 213 °C
Structure (SMILES): Cc1cc(N)c2cc(NC(=O)c3ccccc3CCCCCCc3ccccc3)ccc2n1.Cl

Ki [2]: 64 nM | IC50 [2]: 1160 nM
Structure (SMILES): Cc1cc(N)c2cc(NC(=O)c3ccccc3CCCCCCCOc3ccccc3)ccc2n1.Cl [Example 65]
minimal effective dose [3, 4]: > 3 mg/kg

melting point: 256 °C
Structure (SMILES): Cc1cc(N)c2cc(NC(=O)c3ccccc3COc3ccc(C(C)C)cc3)ccc2n1.Cl

melting point: 240 °C
Structure (SMILES): Cc1cc(N)c2cc(NC(=O)c3ccccc3OCc3ccccc3)ccc2n1.Cl

melting point: 283 °C
Structure (SMILES): Cl.Nc1c2c(nc3ccc(NC(=O)c4ccccc4COc4ccc(Cl)cc4)cc13)CCCC2

melting point: 253 °C
Structure (SMILES): Cc1cc(N)c2cc(NC(=O)[C@H]3CCCN3CCOc3ccc(Cl)cc3)ccc2n1 [Example 115]
